Several values for one entry are separate records, joined by “and”; a condition that tells them apart may be missing. Equal values may be shown once. Read-outs that look alike come from different tables or passages of the source.
Experiments:
A. baumannii AB5075 = test: In vitro passaging, emergence of resistance; format: cell-based, Acinetobacter baumannii
Method: Log-phase cultures (OD600 = 0.5, ~10^8 CFU/mL) of A. baumannii AB5075 were inoculated (1:10, v/v) in 200 μL fresh CaMHB (cation-adjusted Mueller–Hinton broth) containing 2, 8 and 16 μg/mL polymyxin B, colistin, F287, and F365 in a 96-well microplate with 4 biological replicates. The cultures were incubated at 37 °C for 12 h before the next dilution (1:10, v/v) with fresh CaMHB. Successive subculturing was conducted for 7 days.

[1] = system: MDR clinical isolates of P. aeruginosa (n = 213, 55 carbapenem-resistant); format: cell-based, Pseudomonas aeruginosa
Method in brief: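 Compounds were serially diluted in CaMHB, bacteria were added, and the lowest inhibitory concentration was recorded after broth microdilution testing.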

P. aeruginosa ATCC 27853 = format: cell-based, Pseudomonas aeruginosa
Method in brief: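 Susceptibility: microdilution MIC in CaMHB.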

[2] = system: P. aeruginosa FADDI-PA025; format: cell-based, Pseudomonas aeruginosa; conditions: MDR clinical isolate
Method in brief: (§1)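 Cation-adjusted Mueller–Hinton broth was used with the broth microdilution method to set MICs against clinical isolates. A separate run on P. aeruginosa ATCC 27853 added 10% Survanta® (v/v, 2.5 mg/mL phospholipids) to gauge lung-surfactant binding of polymyxins.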

[3] = system: P. aeruginosa FADDI-PA038; format: cell-based, Pseudomonas aeruginosa; conditions: carbapenem-resistant isolate
Method in brief: as §1

HK-2 cells = test: Transcriptomic analysis (RNA-Seq) of kidney cells; format: cell-based, human; conditions: for logFC, differential gene expression for all genes / log2FC / Fold Change: HK-2 RNA-Seq; for log2FC: Fig. 5f; for Fold Change: Fig. 5e
Method: Human Kidney-2 (HK-2) cells (CRL-2190™, American Type Culture Collection) were treated with 100 μM colistin, F287, F319, and F365 for 24 h. Previous transcriptomic data of HK-2 cells following 24 h treatment with polymyxin B[26] were also employed for comparative bioinformatic analysis. RNA extraction was conducted as described above. Raw reads were aligned to genome GRCh38.94 (Ensembl genome database, http://ftp.ensembl.org/pub/release-94/fasta/homo_sapiens/dna/) using […] and summarized by featureCounts. Differentially expressed genes were determined using limma 3.46.0, with a combination of fold change ≥ 1.5 and FDR (by Benjamini–Hochberg algorithm) adjusted P-value ≤ 0.05 (n = 3). Key regulatory genes of HK-2 were analyzed in the context of signaling network in the Signor 2.0 database. Enrichment analysis of gene differential expression in HK-2 cells was conducted using enrichR 2.1. UpSetR 1.4.0, ComplexHeatmap 2.6.2, circlize 0.4.13 and iGraph 1.2.11 were used for data visualization. Raw data were deposited in the Short Reads Archive database under accession numbers SRR15239061-SRR15239078.

wild-type HK-2 cells = test: in vitro; format: cell-based, human; conditions: human, wild-type HK-2 cells (kidney proximal tubular), 24 h
Method: (§2) Fig. 6 Transcriptomic changes in human kidney proximal tubular HK-2 cells following treatments with polymyxin B (PMB), colistin (COL), F287, F319, and F365. a Numbers of differentially expressed genes. Distinctive intersections are color-coded. b Cell viability difference (two-tailed Student’s t-test, n = 4 biologically independent cells, Benjamini–Hochberg adjusted P-values) between wild-type HK-2 and KCNJ16 knockout (KO) cells following 24 h treatment with lipopeptides. n.s., not significant; ^*adjusted P < 0.05, ^**adjusted P < 0.01, ^***adjusted P < 0.001. Data are shown as mean ± s.d. and individual data points. c Extracted transcriptional regulatory network from Signor database with 1-step neighbor constraints (enlarged for detail). Source data are provided as a Source Data file.

[4] = system: KCNJ16 knockout HK-2 cells; test: Cell viability after 24 h treatment; format: cell-based, human; conditions: KCNJ16 knockout HK-2 cells, 24 h, Fig. 6b
Method: as §2

In the case of Polymyxin B [reference compound], the “regrowth observed from day” value (A. baumannii AB5075) is reported as 3 days, the OD600 (A. baumannii AB5075; 8 ug/mL, time 0 h, passage 0, replicates rep1-rep4, raw OD600 (blank OD600 0.125333)) is reported as 0.153 and 0.134 and 0.139 and 0.14 and the OD600 (A. baumannii AB5075; 8 ug/mL, time 12 h, passage 1, replicates rep1-rep4, raw OD600 (blank OD600 0.114667)) is reported as 0.127 and 0.115 and 0.123 and 0.124. The OD600 (A. baumannii AB5075; 8 ug/mL, time 24 h, passage 2, replicates rep1-rep4, raw OD600 (blank OD600 0.0956667)) was 0.086 and 0.093 and 0.096 and 0.083, the OD600 (A. baumannii AB5075; 8 ug/mL, time 36 h, passage 3, replicates rep1-rep4, raw OD600 (blank OD600 0.088)) was 0.088 and 0.089 and 0.094 and 0.092 and the OD600 (A. baumannii AB5075; 8 ug/mL, time 48 h, passage 4, replicates rep1-rep4, raw OD600 (blank OD600 0.104667)) was 0.096 and 0.099 and 0.098 and 0.101. For the same substance, the OD600 (A. baumannii AB5075; 8 ug/mL, time 60 h, passage 5, replicates rep1-rep4, raw OD600 (blank OD600 0.122333)) was 0.108 and 0.105 and 0.103 and 0.116, the OD600 (A. baumannii AB5075; 8 ug/mL, time 72 h, passage 6, replicates rep1-rep4, raw OD600 (blank OD600 0.095)) was 0.092 and 0.093 and 0.083 and 0.091 and the OD600 (A. baumannii AB5075; 8 ug/mL, time 84 h, passage 7, replicates rep1-rep4, raw OD600 (blank OD600 0.091)) was 0.1 and 0.081 and 0.084 and 0.089. The OD600 (A. baumannii AB5075; 8 ug/mL, time 96 h, passage 8, replicates rep1-rep4, raw OD600 (blank OD600 0.0953333)) was 0.192 and 0.105 and 0.119 and 0.106, the OD600 (A. baumannii AB5075; 8 ug/mL, time 108 h, passage 9, replicates rep1-rep4, raw OD600 (blank OD600 0.100667)) was 0.179 and 0.108 and 0.11 and 0.118 and the OD600 (A. baumannii AB5075; 8 ug/mL, time 120 h, passage 10, replicates rep1-rep4, raw OD600 (blank OD600 0.0983333)) was 0.215 and 0.139 and 0.136 and 0.132. The OD600 (A. baumannii AB5075; 8 ug/mL, time 132 h, passage 11, replicates rep1-rep4, raw OD600 (blank OD600 0.0843333)) was 0.198 and 0.19 and 0.197 and 0.21, the OD600 (A. baumannii AB5075; 8 ug/mL, time 144 h, passage 12, replicates rep1-rep4, raw OD600 (blank OD600 0.091)) was 0.2 and 0.22 and 0.217 and 0.231 and the OD600 (A. baumannii AB5075; 8 ug/mL, time 156 h, passage 13, replicates rep1-rep4, raw OD600 (blank OD600 0.129)) was 0.176 and 0.181 and 0.195 and 0.201. For the same substance, the “time to emergence of resistance” value (A. baumannii AB5075; 4× MIC, 7-day passaging) was ≤ 3 days, the “growth over 7 days” value (A. baumannii AB5075; 32× MIC) was “No growth” and the OD600 (A. baumannii AB5075; in vitro passaging, concentration 8 ug/mL, time 168 h, passage 14, individual replicates rep1-rep4, not blank-subtracted (blank OD600 0.101)) was 0.177 and 0.182 and 0.195 and 0.205. It also gave an MIC50 ([1]; P. aeruginosa n = 213) of 1 µg/mL, an MIC90 ([1]; P. aeruginosa n = 213) of 2 µg/mL and a Number of isolates ([1]; isolates with MIC 0.05 μg/mL (so in the source)) of 0. It also gave a Number of isolates ([1]; isolates with MIC 0.125 μg/mL (so in the source)) of 0, a Number of isolates ([1]; isolates with MIC 0.25 μg/mL (so in the source)) of 1 and a Number of isolates ([1]; isolates with MIC 0.5 μg/mL (so in the source)) of 9. The Number of isolates ([1]; isolates with MIC 1 μg/mL (so in the source)) was 99, the Number of isolates ([1]; isolates with MIC 2 μg/mL (so in the source)) was 95 and the Number of isolates ([1]; isolates with MIC 4 μg/mL (so in the source)) was 7. It also gave a Number of isolates ([1]; isolates with MIC 8 μg/mL (so in the source)) of 0, a Number of isolates ([1]; isolates with MIC 16 μg/mL (so in the source)) of 2 and a Number of isolates ([1]; isolates with MIC 32 μg/mL (so in the source)) of 0. The Number of isolates ([1]; isolates with MIC 64 μg/mL (so in the source)) was 0, the Number of isolates ([1]; isolates with MIC >64 μg/mL (so in the source)) was 0 and the “MIC P. aeruginosa ATCC 27853” value (P. aeruginosa ATCC 27853) was 0.5 µg/mL. The “loss of antibacterial activity due to binding to lung surfactant” value (P. aeruginosa ATCC 27853; 10% Survanta) was 87.5%, the “increase of MIC in the presence of lung surfactant” value (P. aeruginosa ATCC 27853; 10% Survanta vs none) was 8 fold and the MIC, 10% Survanta (P. aeruginosa ATCC 27853; P. aeruginosa ATCC 27853, 10% Survanta) was 8 µg/mL. For the same substance, the MIC, No Survanta (P. aeruginosa ATCC 27853; P. aeruginosa ATCC 27853, no surfactant) was 1 µg/mL, the “MIC P. aeruginosa FADDI-PA025” value [2] was 2 µg/mL and the “MIC P. aeruginosa FADDI-PA038” value [3] was 0.5 µg/mL. The “MIC P. aeruginosa FADDI-PA038” value ([3]; listed as PMB) was 1 µg/mL, the “logFC, differential gene expression for all genes” value (HK-2 cells; Geneid ENSG00000223972) was 0.4637 and the “logFC, differential gene expression for all genes” value (HK-2 cells; Geneid ENSG00000227232) was -0.07236. For the same substance, the “logFC, differential gene expression for all genes” value (HK-2 cells; Geneid ENSG00000233750) was -0.3869, the “logFC, differential gene expression for all genes” value (HK-2 cells; Geneid ENSG00000278267) was -0.4937 and the log2FC (HK-2 cells; gene ENSG00000017483 SLC38A5) was 0.7953. The log2FC (HK-2 cells; gene ENSG00000023445 BIRC3) was -0.454, the log2FC (HK-2 cells; gene ENSG00000056558 TRAF1) was 0.6897 and the log2FC (HK-2 cells; gene ENSG00000066468 FGFR2) was -1.758. The “Fold Change” value (HK-2 cells; locus chr1 629640-630683 (ENSG00000225630 by coordinates)) was 1.799, the “Fold Change” value (HK-2 cells; locus chr1 631074-632616 (ENSG00000237973 by coordinates)) was 1.271 and the “Fold Change” value (HK-2 cells; locus chr1 632757-633438 (ENSG00000229344 by coordinates)) was 1.2. The num.of.degs (HK-2 cells; number of differentially expressed genes per peptide, Fig. 6a) was 1576, the “Cell viability, WT, Rep1” value (wild-type HK-2 cells) was 28.7713 and the “Cell viability, WT, Rep2” value (wild-type HK-2 cells) was 35.2856. For the same substance, the “Cell viability, WT, Rep4” value (wild-type HK-2 cells) was 31.0651, the “Cell viability, KCNJ16 KO, Rep1” value ([4]; replicate 1) was 61.7446 and the “Cell viability, KCNJ16 KO, Rep2” value ([4]; replicate 2) was 73.0677. For the same substance, the “Cell viability, KCNJ16 KO, Rep3” value ([4]; replicate 3) was 75.1154 and the “Cell viability, KCNJ16 KO, Rep4” value ([4]; replicate 4) was 76.9625.

Source: publication PMC8956739, “A synthetic lipopeptide targeting top-priority multidrug-resistant Gram-negative pathogens” (Nature Communications, 2022)
